In brackets after ≈: the same amount, converted by molar mass. Read-outs that look alike come from different tables or passages of the source.
Key:
[1] = tested on: Bacillus subtilis ATCC 6633; test: "In vitro" MIC, Bacillus subtilis; assay type: cell-based; conditions: read-out: "In vitro" MIC
Protocol: (§1) Antimicrobial pharmacological activity (G. L. Daquet and Y. A. Chabbect, Techniques en bacteriologie (Techniques in bacteriology), vol. 3, Flammarion Medecine-Sciences, Paris, 1972, and W. B. Hugo and A. D. Rusell, Pharmaceutical Microbiology, Blackwell Scientific Publications, London (1977).
Bacillus subtilis ATCC 6633
(§2) A streak culture of each of the microorganisms is formed in tubes of antibiotics agar no. 1 and incubated for 20 hours at 37° C. A culture loop is then taken and a culture is formed in a tryptone-soya broth and incubated for 20 hours at 37° C. The resulting culture is diluted to 1/4 with Ringer's physiological solution to give a standardized suspension of 10^5 ufc/ml for each organism.
(§3) Starting from a solution of 1000 μg/ml in 0.1N NaOH, each product is diluted successively in dextrose agar (melted beforehand and kept at 50° C.) to give the following concentrations: 64-32-16-8-4-2-1-0.5-0.25-0.125 μg of derivative/ml of medium.
(§4) After this, each concentration of each product is divided up into Petri dishes of 10 cm diameter at a rate of 10 ml of medium per dish and using as many dishes as there are microorganisms to be tested.
(§5) Once the medium has cooled, the dishes are treated with the inoculations at a rate of 0.4 ml of inoculation per dish. They are spread out with a Drigalski loop and the supernatant is collected. The inoculated dishes are incubated at 37° C. for 20 hours.

[2] = tested on: Micrococcus flavus ATCC 10240; test: "In vitro" MIC, Micrococcus flavus; assay type: cell-based; conditions: read-out: "In vitro" MIC
Protocol: as §1
Micrococcus flavus ATTC 10240
as §2, §3, §4, §5

Sarcina lutea ATCC 9341 = test: "In vitro" MIC, Sarcina lutea; assay type: cell-based; conditions: Micrococcus luteus, read-out: "In vitro" MIC
Protocol: as §1, §2, §3, §4, §5

[3] = tested on: Staphylococcus aureus ATCC 5488/23; test: "In vitro" MIC, Staphylococcus aureus ATCC 5488/23; assay type: cell-based; conditions: read-out: "In vitro" MIC
Protocol: as §1
Staphylococcus aureus ATCC 5488/23
as §2, §3, §4, §5

[4] = tested on: Staphylococcus aureus ATCC 25178; test: "In vitro" MIC, Staphylococcus aureus ATCC 25178; assay type: cell-based; conditions: read-out: "In vitro" MIC
Protocol: as §1
Staphylococcus aureus ATCC 25178
as §2, §3, §4, §5

[5] = tested on: Streptococcus faecalis ATCC 10541; test: "In vitro" MIC, Streptococcus faecalis; assay type: cell-based; conditions: Enterococcus faecalis, read-out: "In vitro" MIC
Protocol: as §1
Streptococcus faecalis ATCC 10541
as §2, §3, §4, §5

[6] = tested on: Enterobacter aerogenes ATCC 15038; test: "In vitro" MIC, Enterobacter aerogenes; assay type: cell-based; conditions: Klebsiella aerogenes, read-out: "In vitro" MIC
Protocol: as §1
Enterobacter aerogenes ATCC 15038
as §2, §3, §4, §5

[7] = tested on: Enterobacter cloacae CHSP-20; test: "In vitro" MIC, Enterobacter cloacae; assay type: cell-based; conditions: read-out: "In vitro" MIC
Protocol: as §1
Enterobacter cloacae CHSP-20
as §2, §3, §4, §5

[8] = tested on: Escherichia coli ATCC 10536; test: "In vitro" MIC, Escherichia coli ATCC 10536; assay type: cell-based; conditions: read-out: "In vitro" MIC
Protocol: as §1
Escherichia coli ATCC 10536
as §2, §3, §4, §5

Escherichia coli R-1513 = test: "In vitro" MIC, Escherichia coli R-1513; assay type: cell-based; conditions: read-out: "In vitro" MIC
Protocol: as §1, §2, §3, §4, §5

[9] = tested on: Klebsiella pneumoniae ATCC 10031; test: "In vitro" MIC, Klebsiella pneumoniae; assay type: cell-based; conditions: read-out: "In vitro" MIC
Protocol: as §1
Klebsiella pneumoniae ATCC 10031
as §2, §3, §4, §5

[10] = tested on: Citrobacter freundii ATCC 11606; test: "In vitro" MIC, Citrobacter freundii; assay type: cell-based; conditions: read-out: "In vitro" MIC
Protocol: as §1
Citrobacter freundii ATCC 11606
as §2, §3, §4, §5

[11] = tested on: Proteus mirabilis ATCC 4675; test: "In vitro" MIC, Proteus mirabilis; assay type: cell-based; conditions: read-out: "In vitro" MIC
Protocol: as §1
Proteus mirabilis ATCC 4675
as §2, §3, §4, §5

Proteus morganii CHSP-16 = test: "In vitro" MIC, Proteus morganii; assay type: cell-based; conditions: Morganella morganii, read-out: "In vitro" MIC
Protocol: as §1, §2, §3, §4, §5

[12] = tested on: Pseudomonas aeruginosa 25115; test: "In vitro" MIC, Pseudomonas aeruginosa 25115; assay type: cell-based; conditions: read-out: "In vitro" MIC
Protocol: as §1
Pseudomonas aeruginosa 25115
as §2, §3, §4, §5

[13] = tested on: Pseudomonas aeruginosa ADSA 47; test: "In vitro" MIC, Pseudomonas aeruginosa ADSA 47; assay type: cell-based; conditions: read-out: "In vitro" MIC
Protocol: as §1
Pseudomonas aeruginosa ADSA 47
as §2, §3, §4, §5

[14] = tested on: Salmonella typhimurium AMES 98; test: "In vitro" MIC, Salmonella typhimurium AMES 98; assay type: cell-based; conditions: Salmonella enterica, read-out: "In vitro" MIC
Protocol: as §1
Salmonella typhimurium AMES 98
as §2, §3, §4, §5

[15] = tested on: Salmonella typhimurium AMES 100; test: "In vitro" MIC, Salmonella typhimurium AMES 100; assay type: cell-based; conditions: Salmonella enterica, read-out: "In vitro" MIC
Protocol: as §1
Salmonella typhimurium AMES 100
as §2, §3, §4, §5

[16] = tested on: Serratia marcescens ATTC 13880; test: "In vitro" MIC, Serratia marcescens; assay type: cell-based; conditions: read-out: "In vitro" MIC
Protocol: as §1
Serratia marcescens ATTC 13880
as §2, §3, §4, §5

Shigella flexnerii = test: "In vitro" MIC, Shigella flexnerii; assay type: cell-based; conditions: 20 h, read-out: "In vitro" MIC
Protocol: as §1, §2, §3, §4, §5

Acute toxicity to mice = conditions: mouse, in vivo, ip, suspension in 5% gum arabic, mortality over 7 days
Protocol: The experimental animals used to determine this toxicity were albino mice of the C.F.L.P. strain and of both sexes, weighing between 19 and 25 grams. After an 18-hour fasting period with water "ad libitum", the derivatives forming the subject of the present invention are administered intraperitoneally as a suspension in 5% gum arabic. The volume of suspension administered was 0.4 ml/20 grams (20 ml/kg) in all cases, the concentration of the suspension being changed according to the dose administered.
One hour after administration of the derivatives, the animals are given a standard Panlab rat-mouse food. The mortality was observed over a period of 7 days. Differences in mortality between the sexes were not observed with any of the products.

[17] = tested on: Enterobacteriaceae (Pseudomonas aeruginosa); test: "In vitro" antimicrobial activity compared with nalidixic acid, Enterobacteriaceae (Pseudomonas aeruginosa); assay type: cell-based
Protocol: as §1, §2, §3, §4, §5

Gram-positive cocci = test: "In vitro" antimicrobial activity compared with nalidixic acid, Gram-positive cocci; assay type: cell-based
Protocol: as §1, §2, §3, §4, §5

SMILES: CNn1cc(C(=O)O)c(=O)c2cc(F)c(-n3cccc3)cc21 [Example 7, 6-fluoro-7-(pyrrol-1-yl)-1-methylamino-4-oxo-1,4-dihydroquinoline-3-carboxylic acid]
- MIC ([1]; ATCC6633, Bacillus subtilis ATCC 6633, dextrose agar, 37° C., 20 hours): ≤ 0.062 µg/mL
- MIC ([2]; ATCC10240, Micrococcus flavus ATCC 10240, dextrose agar, 37° C., 20 hours): 4 µg/mL (≈ 13.3 µM)
- MIC (Sarcina lutea ATCC 9341; ATCC9341, Sarcina lutea ATCC 9341, dextrose agar, 37° C., 20 hours): 4 µg/mL (≈ 13.3 µM)
- MIC ([3]; ATCC5488, Staphylococcus aureus ATCC 5488/23, dextrose agar, 37° C., 20 hours): 0.25 µg/mL (≈ 0.83 µM)
- MIC ([4]; ATCC25178, Staphylococcus aureus ATCC 25178, dextrose agar, 37° C., 20 hours): 0.25 µg/mL (≈ 0.83 µM)
- MIC ([5]; ATCC10541, Streptococcus faecalis ATCC 10541, dextrose agar, 37° C., 20 hours): 4 µg/mL (≈ 13.3 µM)
- MIC ([6]; ATCC15038, Enterobacter aerogenes ATCC 15038, dextrose agar, 37° C., 20 hours): 1 µg/mL (≈ 3.32 µM)
- MIC ([7]; CHSP20, Enterobacter cloacae CHSP-20, dextrose agar, 37° C., 20 hours): 1 µg/mL (≈ 3.32 µM)
- MIC ([8]; ATCC10536, Escherichia coli ATCC 10536, dextrose agar, 37° C., 20 hours): ≤ 0.062 µg/mL
- MIC (Escherichia coli R-1513; R1513, Escherichia coli R-1513, dextrose agar, 37° C., 20 hours): 0.5 µg/mL (≈ 1.66 µM)
- MIC ([9]; ATCC10031, Klebsiella pneumoniae ATCC 10031, dextrose agar, 37° C., 20 hours): 0.125 µg/mL (≈ 0.415 µM)
- MIC ([10]; ATCC11606, Citrobacter freundii ATCC 11606, dextrose agar, 37° C., 20 hours): 1 µg/mL (≈ 3.32 µM)
- MIC ([11]; ATCC4675, Proteus mirabilis ATCC 4675, dextrose agar, 37° C., 20 hours): 2 µg/mL (≈ 6.64 µM)
- MIC (Proteus morganii CHSP-16; CHSP16, Proteus morganii CHSP-16, dextrose agar, 37° C., 20 hours): 1 µg/mL (≈ 3.32 µM)
- MIC ([12]; Pseudomonas aeruginosa 25115, dextrose agar, 37° C., 20 hours): 8 µg/mL (≈ 26.6 µM)
- MIC ([13]; ADSA47, Pseudomonas aeruginosa ADSA 47, dextrose agar, 37° C., 20 hours): 16 µg/mL (≈ 53.1 µM)
- MIC ([14]; Salmonella typhimurium AMES 98, dextrose agar, 37° C., 20 hours): 0.125 µg/mL (≈ 0.415 µM)
- MIC ([15]; Salmonella typhimurium AMES 100, dextrose agar, 37° C., 20 hours): 0.25 µg/mL (≈ 0.83 µM)
- MIC ([16]; ATTC13880, Serratia marcescens ATTC 13880, dextrose agar, 37° C., 20 hours): 1 µg/mL (≈ 3.32 µM)
- MIC (Shigella flexnerii): 1 µg/mL (≈ 3.32 µM)
- LD50 at 168 h (Acute toxicity to mice): > 1600 mg/kg
- "in vitro" activity compared with nalidixic acid [17]: greater "in vitro" activity than nalidixic acid
- "in vitro" activity compared with nalidixic acid (Gram-positive cocci): greater "in vitro" activity than nalidixic acid

SMILES: CCn1cc(C(=O)O)c(=O)c2ccc(C)nc21 [Nalidixic acid, reference compound]
- MIC ([1]; Bacillus subtilis, ATCC6633, 20 h): 1 µg/mL (≈ 4.31 µM)
- MIC ([2]; Micrococcus flavus, ATCC10240, 20 h): 128 µg/mL (≈ 551 µM)
- MIC (Sarcina lutea ATCC 9341; ATCC9341, 20 h): 128 µg/mL (≈ 551 µM)
- MIC ([3]; Staphylococcus aureus, ATCC5488, 20 h): 32 µg/mL (≈ 138 µM)
- MIC ([4]; Staphylococcus aureus, ATCC25178, 20 h): ≥ 64 µg/mL
- MIC ([5]; ATCC10541, 20 h): ≥ 64 µg/mL
- MIC ([6]; ATCC15038, 20 h): 4 µg/mL (≈ 17.2 µM)
- MIC ([7]; Enterobacter cloacae, CHSP20, 20 h): 4 µg/mL (≈ 17.2 µM)
- MIC ([8]; Escherichia coli, ATCC10536, 20 h): 0.25 µg/mL (≈ 1.08 µM)
- MIC (Escherichia coli R-1513; Escherichia coli, R1513, 20 h): 4 µg/mL (≈ 17.2 µM)
- MIC ([9]; Klebsiella pneumoniae, ATCC10031, 20 h): 1 µg/mL (≈ 4.31 µM)
- MIC ([10]; Citrobacter freundii, ATCC11606, 20 h): 4 µg/mL (≈ 17.2 µM)
- MIC ([11]; Proteus mirabilis, ATCC4675, 20 h): 8 µg/mL (≈ 34.4 µM)
- MIC (Proteus morganii CHSP-16; CHSP16, 20 h): 1 µg/mL (≈ 4.31 µM)
- MIC ([12]; Pseudomonas aeruginosa, 25115, 20 h): ≥ 128 µg/mL
- MIC ([13]; Pseudomonas aeruginosa, ADSA47, 20 h): ≥ 128 µg/mL
- MIC ([14]; TYPHIMURIUM, 20 h): 0.5 µg/mL (≈ 2.15 µM)
- MIC ([15]; TYPHIMURIUM, 20 h): 0.5 µg/mL (≈ 2.15 µM)
- MIC ([16]; Serratia marcescens, ATTC13880, 20 h): 1 µg/mL (≈ 4.31 µM)
- MIC (Shigella flexnerii): 2 µg/mL (≈ 8.61 µM)

From patent publication US4727080A, “1-substituted derivatives of 6-fluoro-7-(pyrrol-1-yl)-1,4-dihydro-4-oxoquinoline-3-carboxylic acid, their preparation and their application as drugs” (Provesan S.A., priority 1984, dated 1988)
